Measurements published in patent US9695155B2, “Herbicidal substituted pyrimidinyloxy benzene compounds” (E. I. DU PONT DE NEMOURS AND COMPANY, priority 2013, dated 2017).

Legend:
barnyardgrass = assay: Test A preemergence; type: in vivo, Echinochloa crus-galli
Procedure, shortened: (§1)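 Visual 0–100 rating (100 = complete control) taken about 10 d post-treatment relative to untreated checks. Preemergence: directed soil spray on sown loam/sand pots. Postemergence: seedlings 2–10 cm, 1–2 leaf. Non-phytotoxic solvent formulation with surfactant.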

pigweed [1] = assay: Test A preemergence; type: in vivo, Amaranthus retroflexus
Procedure, shortened: as §1

giant foxtail [2] = assay: Test A postemergence; type: in vivo, Setaria faberii; conditions: 0 to 100 scale where 0 is no effect and 100 is complete control
Procedure, shortened: as §1

pigweed [3] = assay: Test A postemergence; type: in vivo, Amaranthus retroflexus; conditions: 0 to 100 scale where 0 is no effect and 100 is complete control
Procedure, shortened: as §1

corn [4] = assay: Test A postemergence; type: in vivo, Zea mays; conditions: 0 to 100 scale where 0 is no effect and 100 is complete control
Procedure, shortened: as §1

large (Lg) crabgrass = assay: Test C preemergence; type: in vivo, Digitaria sanguinalis; conditions: for Crabgrass, Large plant response rating: preemergence
Procedure, shortened: (§2)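 Plants were kept under greenhouse conditions for 13–15 days following spray. Pre-emergent application went to soil (loam–sand), post-emergent to foliage at 1–4 leaves. Evaluation: visual, percent control against untreated checks.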

johnsongrass [5] = assay: Test C preemergence; type: in vivo, Sorghum halepense; conditions: for Johnsongrass plant response rating: preemergence
Procedure, shortened: as §2

lambsquarters = assay: Test C preemergence; type: in vivo, Chenopodium album; conditions: for Lambsquarters plant response rating: preemergence
Procedure, shortened: as §2

ragweed = assay: Test C preemergence; type: in vivo, Ambrosia elatior; conditions: for Ragweed plant response rating: preemergence
Procedure, shortened: as §2

galium = assay: Test C postemergence; type: in vivo, Galium aparine; conditions: for Plant response rating, Galium: Postemergence
Procedure, shortened: as §2

corn [6] = assay: Test C postemergence; type: in vivo, Zea mays; conditions: for Plant response rating, Corn: Postemergence
Procedure, shortened: as §2

giant foxtail [7] = assay: Test C postemergence; type: in vivo, Setaria faberii; conditions: for Plant response rating, Foxtail, Giant: Postemergence
Procedure, shortened: as §2

johnsongrass [8] = assay: Test C postemergence; type: in vivo, Sorghum halepense; conditions: for Plant response rating, Johnsongrass: Postemergence
Procedure, shortened: as §2

kochia = assay: Test C postemergence; type: in vivo, Kochia scoparia; conditions: for Plant response rating, Kochia: Postemergence
Procedure, shortened: as §2

chickweed = assay: Test C postemergence; type: in vivo, Stellaria media; conditions: for Plant response rating, Chickweed: Postemergence
Procedure, shortened: as §2

[9] = 125 g ai/ha, 0 to 100 scale where 0 is no effect and 100 is complete control
[10] = 500 g ai/ha, 0 to 100 scale, 0 no effect, 100 complete control, approx. 10 days
[11] = 16 g ai/ha, scale 0 to 100 (0 no effect, 100 complete control)
[12] = 62 g ai/ha, scale 0 (no effect) to 100 (complete control)
[13] = 125 g ai/ha, scale 0 (no effect) to 100 (complete control)
[14] = Preemergence, 31 g ai/ha, scale 0 to 100, 0 no effect, 100 complete control
[15] = 16 g ai/ha, postemergence, visual rating, scale 0 to 100 (0 no effect, 100 complete control), 13 to 15 days
[16] = 31 g ai/ha, scale 0 to 100 (0 no effect, 100 complete control), 13 to 15 days
[17] = 62 g ai/ha, scale 0 to 100 (0 no effect, 100 complete control)

In the case of `N#Cc1cccc(Oc2ncc(F)cn2)c1-n1cc(I)cn1` [Compound 86], the “Plant response rating, Barnyardgrass” value (barnyardgrass; [9]) is reported as 80, the “Barnyardgrass plant response rating” value (barnyardgrass; [10]) is reported as 100 and the “Plant response rating, Pigweed” value (pigweed [1]; [9]) is reported as 100. For the same compound, the “Pigweed plant response rating” value (pigweed [1]; [10]) was 100, the “Plant response rating, Foxtail, Giant” value (giant foxtail [2]; 125 g ai/ha) was 90 and the “Plant response rating, Foxtail, Giant” value (giant foxtail [2]; 500 g ai/ha) was 100. For the same compound, the “Plant response rating, Pigweed” value (pigweed [3]; 125 g ai/ha) was 100, the “Plant response rating, Pigweed” value (pigweed [3]; 500 g ai/ha) was 100 and the “Plant response rating, Corn” value (corn [4]; 125 g ai/ha) was 50. For the same compound, the “Plant response rating, Corn” value (corn [4]; 500 g ai/ha) was 100, the “Crabgrass, Large plant response rating” value (large (Lg) crabgrass; [11]) was 85 and the “Crabgrass, Large plant response rating” value (large (Lg) crabgrass; [12]) was 100. For the same compound, the “Crabgrass, Large plant response rating” value (large (Lg) crabgrass; [13]) was 100, the “Plant response rating, Crabgrass, Large” value (large (Lg) crabgrass; [14]) was 100 and the “Johnsongrass plant response rating” value (johnsongrass [5]; [11]) was 10. The “Johnsongrass plant response rating” value (johnsongrass [5]; [12]) was 60, the “Johnsongrass plant response rating” value (johnsongrass [5]; [13]) was 95 and the “Plant response rating, Johnsongrass” value (johnsongrass [5]; [14]) was 20. For the same compound, the “Lambsquarters plant response rating” value (lambsquarters; [11]) was 100, the “Lambsquarters plant response rating” value (lambsquarters; [12]) was 100 and the “Lambsquarters plant response rating” value (lambsquarters; [13]) was 100. The “Plant response rating, Lambsquarters” value (lambsquarters; [14]) was 100, the “Ragweed plant response rating” value (ragweed; [11]) was 5 and the “Ragweed plant response rating” value (ragweed; [12]) was 100. The “Ragweed plant response rating” value (ragweed; [13]) was 100, the “Plant response rating, Ragweed” value (ragweed; [14]) was 20 and the “Galium plant response rating” value (galium; [15]) was 55. For the same compound, the “Plant response rating (0 to 100), Galium” value (galium; 125 g ai/ha, postemergence) was 80, the “Plant response rating, Galium” value (galium; [16]) was 60 and the “Plant response rating, Galium” value (galium; [17]) was 80. For the same compound, the “Corn plant response rating” value (corn [6]; [15]) was 5, the “Plant response rating (0 to 100), Corn” value (corn [6]; 125 g ai/ha, postemergence) was 10 and the “Plant response rating, Corn” value (corn [6]; [16]) was 5. For the same compound, the “Plant response rating, Corn” value (corn [6]; [17]) was 5, the “Foxtail, Giant plant response rating” value (giant foxtail [7]; [15]) was 5 and the “Plant response rating (0 to 100), Foxtail, Giant” value (giant foxtail [7]; 125 g ai/ha, postemergence) was 25. The “Plant response rating, Foxtail, Giant” value (giant foxtail [7]; [16]) was 5, the “Plant response rating, Foxtail, Giant” value (giant foxtail [7]; [17]) was 15 and the “Johnsongrass plant response rating” value (johnsongrass [8]; [15]) was 0. For the same compound, the “Plant response rating (0 to 100), Johnsongrass” value (johnsongrass [8]; 125 g ai/ha, postemergence) was 5, the “Plant response rating, Johnsongrass” value (johnsongrass [8]; [16]) was 5 and the “Plant response rating, Johnsongrass” value (johnsongrass [8]; [17]) was 5. For the same compound, the “Kochia plant response rating” value (kochia; [15]) was 50, the “Plant response rating (0 to 100), Kochia” value (kochia; 125 g ai/ha, postemergence) was 95 and the “Plant response rating, Kochia” value (kochia; [16]) was 60. The “Plant response rating, Kochia” value (kochia; [17]) was 90, the “Chickweed plant response rating” value (chickweed; [15]) was 40 and the “Plant response rating (0 to 100), Chickweed” value (chickweed; 125 g ai/ha, postemergence) was 80. The “Plant response rating, Chickweed” value (chickweed; [16]) was 55 and the “Plant response rating, Chickweed” value (chickweed; [17]) was 60.
